According to ChEMBL document CHEMBL1949508, “The selective cytotoxic activity in breast cancer cells by an anthranilic alcohol-derived acyclic 5-fluorouracil O,N-acetal is mediated by endoplasmic reticulum stress-induced apoptosis” (Eur J Med Chem, 2012):
Activity calls are given as the source filed them. The rule behind the calls is not given here.

What was measured:
[1] = test system: MCF7; assay: Antiproliferative activity against human MCF7 cells after 3 days by SRB assay; type: functional, cell-based; settings: MCF7, 72 h
[2] = test system: MCF-10A; assay: Cytotoxicity against human MCF10A cells after 3 days by SRB assay; type: cell-based; settings: 72 h
[3] = test system: MCF7; assay: Antiproliferative activity against human MCF7 cells assessed as cell viability at 1.09 uM after […] by SRB assay (reference value: 96.35 +/- 1.32%); type: functional; settings: read-out: Activity
[4] = Antiproliferative activity against human MCF10A cells assessed as viable cells at 37.67 uM after […] by SRB assay (reference value: 98.46 +/- 3.2%); type: cell-based, MCF-10A; settings: read-out: Activity
[5] = test system: MCF7; assay: Induction of apoptosis in human MCF7 cells assessed as apoptotic cells at 1.09 uM after 48 hrs by annexinV-FITC/PI-based flow cytometry relative to control; type: functional
[6] = test system: MCF-10A; assay: Induction of apoptosis in human MCF10A cells assessed as apoptotic cells at 37.67 uM after 48 hrs by annexinV-FITC/PI-based flow cytometry relative to control; type: cell-based
[7] = test system: MCF7; assay: Induction of apoptosis in human MCF7 cells assessed as early apoptotic cells at 1.09 uM after 48 hrs by annexinV-FITC/PI-based flow cytometry (reference value: 3.27 +/- 0.67%); type: functional
[8] = test system: MCF-10A; assay: Induction of apoptosis in human MCF10A cells assessed as early apoptotic cells at 37.67 uM after 48 hrs by annexinV-FITC/PI-based flow cytometry (reference value: 0.73 +/- 0.23%); type: cell-based
[9] = test system: MCF7; assay: Induction of apoptosis in human MCF7 cells assessed as late apoptotic cells at 1.09 uM after 48 hrs by annexinV-FITC/PI-based flow cytometry (reference value: 0.11 +/- 0.02%); type: functional
[10] = test system: MCF-10A; assay: Induction of apoptosis in human MCF10A cells assessed as late apoptotic cells at 37.67 uM after 48 hrs by annexinV-FITC/PI-based flow cytometry (reference value: 0.21 +/- 0.1%); type: cell-based
[11] = test system: MCF7; assay: Induction of necrosis in human MCF7 cells assessed as necrotic cells at 1.09 uM after 48 hrs by annexinV-FITC/PI-based flow cytometry (reference value: 0.27 +/- 0.01%); type: functional
[12] = test system: MCF-10A; assay: Induction of necrosis in human MCF10A cells assessed as necrotic cells at 37.67 uM after 48 hrs by annexinV-FITC/PI-based flow cytometry (reference value: 0.6 +/- 0.13%); type: cell-based
[13] = test system: MCF7; assay: Upregulation of BBC3 gene in human MCF7 cells at 1.09 uM after 48 hrs by microarray hybridization relative to control; type: functional
[14] = test system: MCF7; assay: Upregulation of MTL5 gene in human MCF7 cells at 1.09 uM after 48 hrs by microarray hybridization relative to control; type: functional
[15] = test system: MCF7; assay: Upregulation of BMF gene in human MCF7 cells at 1.09 uM after 48 hrs by microarray hybridization relative to control; type: functional
[16] = test system: MCF7; assay: Upregulation of BNIP3L gene in human MCF7 cells at 1.09 uM after 48 hrs by microarray hybridization relative to control; type: functional
[17] = test system: MCF7; assay: Upregulation of BNIP3 gene in human MCF7 cells at 1.09 uM after 48 hrs by microarray hybridization relative to control; type: functional
[18] = test system: MCF7; assay: Upregulation of GADD45A gene in human MCF7 cells at 1.09 uM after 48 hrs by microarray hybridization relative to control; type: functional
[19] = test system: MCF7; assay: Upregulation of CARD14 gene in human MCF7 cells at 1.09 uM after 48 hrs by microarray hybridization relative to control; type: functional
[20] = test system: MCF7; assay: Upregulation of GADD45B gene in human MCF7 cells at 1.09 uM after 48 hrs by microarray hybridization relative to control; type: functional
[21] = test system: MCF7; assay: Upregulation of DNASE1 gene in human MCF7 cells at 1.09 uM after 48 hrs by microarray hybridization relative to control; type: functional
[22] = test system: MCF7; assay: Upregulation of NOXA gene in human MCF7 cells at 1.09 uM after 48 hrs by microarray hybridization relative to control; type: functional
[23] = test system: MCF7; assay: Downregulation of UNC5C gene in human MCF7 cells at 1.09 uM after 48 hrs by microarray hybridization relative to control; type: functional
[24] = test system: MCF7; assay: Downregulation of CARD9 gene in human MCF7 cells at 1.09 uM after 48 hrs by microarray hybridization relative to control; type: functional
[25] = test system: MCF7; assay: Downregulation of AVEN gene in human MCF7 cells at 1.09 uM after 48 hrs by microarray hybridization relative to control; type: functional
[26] = test system: MCF7; assay: Downregulation of BCL2 gene in human MCF7 cells at 1.09 uM after 48 hrs by microarray hybridization relative to control; type: functional
[27] = test system: MCF7; assay: Downregulation of BAG2 gene in human MCF7 cells at 1.09 uM after 48 hrs by microarray hybridization relative to control; type: functional
[28] = test system: MCF7; assay: Downregulation of CD14 gene in human MCF7 cells at 1.09 uM after 48 hrs by microarray hybridization relative to control; type: functional
[29] = test system: MCF7; assay: Downregulation of E2F1 gene in human MCF7 cells at 1.09 uM after 48 hrs by microarray hybridization relative to control; type: functional
[30] = test system: MCF7; assay: Downregulation of […] gene in human MCF7 cells at 1.09 uM after 48 hrs by microarray hybridization relative to control; type: functional
[31] = test system: MCF7; assay: Downregulation of TP5313 gene in human MCF7 cells at 1.09 uM after 48 hrs by microarray hybridization relative to control; type: functional
[32] = test system: MCF7; assay: Downregulation of FAIM gene in human MCF7 cells at 1.09 uM after 48 hrs by microarray hybridization relative to control; type: functional
[33] = test system: MCF7; assay: Downregulation of CCL2 gene in human MCF7 cells at 1.09 uM after 48 hrs by microarray hybridization relative to control; type: functional
[34] = test system: MCF-10A; assay: Upregulation of BBC3 gene in human MCF10A cells at 37.67 uM after 48 hrs by microarray hybridization relative to control; type: functional, cell-based
[35] = test system: MCF-10A; assay: Upregulation of MTL5 gene in human MCF10A cells at 37.67 uM after 48 hrs by microarray hybridization relative to control; type: functional, cell-based
[36] = test system: MCF-10A; assay: Upregulation of BMF gene in human MCF10A cells at 37.67 uM after 48 hrs by microarray hybridization relative to control; type: functional, cell-based
[37] = test system: MCF-10A; assay: Upregulation of BNIP3L gene in human MCF10A cells at 37.67 uM after 48 hrs by microarray hybridization relative to control; type: functional, cell-based
[38] = test system: MCF-10A; assay: Upregulation of BNIP3 gene in human MCF10A cells at 37.67 uM after 48 hrs by microarray hybridization relative to control; type: functional, cell-based
[39] = test system: MCF-10A; assay: Upregulation of GADD45A gene in human MCF10A cells at 37.67 uM after 48 hrs by microarray hybridization relative to control; type: functional, cell-based
[40] = test system: MCF-10A; assay: Upregulation of CARD14 gene in human MCF10A cells at 37.67 uM after 48 hrs by microarray hybridization relative to control; type: functional, cell-based
[41] = test system: MCF-10A; assay: Upregulation of GADD45B gene in human MCF10A cells at 37.67 uM after 48 hrs by microarray hybridization relative to control; type: functional, cell-based
[42] = test system: MCF-10A; assay: Upregulation of DNASE1 gene in human MCF10A cells at 37.67 uM after 48 hrs by microarray hybridization relative to control; type: functional, cell-based
[43] = test system: MCF-10A; assay: Upregulation of NOXA gene in human MCF10A cells at 37.67 uM after 48 hrs by microarray hybridization relative to control; type: functional, cell-based
[44] = test system: MCF-10A; assay: Downregulation of UNC5C gene in human MCF10A cells at 37.67 uM after 48 hrs by microarray hybridization relative to control; type: functional, cell-based
[45] = test system: MCF-10A; assay: Downregulation of CARD9 gene in human MCF10A cells at 37.67 uM after 48 hrs by microarray hybridization relative to control; type: functional, cell-based
[46] = test system: MCF-10A; assay: Downregulation of AVEN gene in human MCF10A cells at 37.67 uM after 48 hrs by microarray hybridization relative to control; type: functional, cell-based
[47] = test system: MCF-10A; assay: Downregulation of BCL2 gene in human MCF10A cells at 37.67 uM after 48 hrs by microarray hybridization relative to control; type: functional, cell-based
[48] = test system: MCF-10A; assay: Downregulation of BAG2 gene in human MCF10A cells at 37.67 uM after 48 hrs by microarray hybridization relative to control; type: functional, cell-based
[49] = test system: MCF-10A; assay: Downregulation of CD14 gene in human MCF10A cells at 37.67 uM after 48 hrs by microarray hybridization relative to control; type: functional, cell-based
[50] = test system: MCF-10A; assay: Downregulation of E2F1 gene in human MCF10A cells at 37.67 uM after 48 hrs by microarray hybridization relative to control; type: functional, cell-based
[51] = test system: MCF-10A; assay: Downregulation of […] gene in human MCF10A cells at 37.67 uM after 48 hrs by microarray hybridization relative to control; type: functional, cell-based
[52] = test system: MCF-10A; assay: Downregulation of TP5313 gene in human MCF10A cells at 37.67 uM after 48 hrs by microarray hybridization relative to control; type: functional, cell-based
[53] = test system: MCF-10A; assay: Downregulation of FAIM gene in human MCF10A cells at 37.67 uM after 48 hrs by microarray hybridization relative to control; type: functional, cell-based
[54] = test system: MCF-10A; assay: Downregulation of CCL2 gene in human MCF10A cells at 37.67 uM after 48 hrs by microarray hybridization relative to control; type: functional, cell-based
[55] = test system: MCF7; assay: Upregulation of BBC3 gene in human MCF7 cells at 1.09 uM after 48 hrs by quantitative RT-PCR analysis; type: functional, cell-based
[56] = test system: MCF-10A; assay: Upregulation of BBC3 gene in human MCF10A cells at 37.67 uM after 48 hrs by quantitative RT-PCR analysis; type: functional, cell-based
[57] = test system: MCF7; assay: Upregulation of NOXA gene in human MCF7 cells at 1.09 uM after 48 hrs by quantitative RT-PCR analysis; type: functional, cell-based
[58] = test system: MCF7; assay: Modulation of p53 gene expression in human MCF7 cells at 1.09 uM after 48 hrs by quantitative RT-PCR analysis; type: functional, cell-based
[59] = test system: MCF7; assay: Modulation of Apaf-1 gene expression in human MCF7 cells at 1.09 uM after 48 hrs by quantitative RT-PCR analysis; type: functional, cell-based
[60] = test system: MCF7; assay: Downregulation of Bcl2 gene expression in human MCF7 cells at 1.09 uM after 48 hrs by quantitative RT-PCR analysis; type: functional, cell-based
[61] = test system: MCF7; assay: Upregulation of BBC3 protein expression in human MCF7 cells at […] after 48 hrs by Western blot analysis relative to control; type: functional
[62] = test system: MCF-10A; assay: Upregulation of BBC3 protein expression in human MCF10A cells at 37.67 uM after 48 hrs by Western blot analysis relative to control; type: functional
[63] = Therapeutic index, ratio of IC50 for human MCF10A cells to IC50 for human MCF7 cells; type: cell-based; settings: MCF10A cells and MCF7 cells, read-out: Ratio IC50

SMILES: COC(CN(c1ccccc1CO)S(=O)(=O)c1ccccc1N)n1cc(F)c(=O)[nH]c1=O (racemic)
- IC50 [1]: 1.09 µM
- IC50 [2]: 37.7 µM
- viability at 1.09 µM [3]: 6.35%
- viability at 37.67 µM [4]: 30.9%
- Activity [5]: 90.73%
- Activity [6]: 19.86%
- Activity [7]: 13.73%
- Activity [8]: 2.57%
- Activity [9]: 77.4%
- Activity [10]: 17.29%
- Activity [11]: 2.52%
- Activity [12]: 49.24%
- fold change (FC) [13]: 3.78
- fold change (FC) [14]: 3.75
- fold change (FC) [15]: 3
- fold change (FC) [16]: 2.84
- fold change (FC) [17]: 2.65
- fold change (FC) [18]: 2.54
- fold change (FC) [19]: 2.34
- fold change (FC) [20]: 2.2
- fold change (FC) [21]: 2.07
- fold change (FC) [22]: 2.02
- fold change (FC) [23]: -2.01
- fold change (FC) [24]: -2.11
- fold change (FC) [25]: -2.21
- fold change (FC) [26]: -2.26
- fold change (FC) [27]: -2.32
- fold change (FC) [28]: -2.61
- fold change (FC) [29]: -2.61
- fold change (FC) [30]: -2.62
- fold change (FC) [31]: -2.68
- fold change (FC) [32]: -3.1
- fold change (FC) [33]: -3.77
- Activity [34]: inactive
- Activity [35]: inactive
- Activity [36]: inactive
- Activity [37]: inactive
- Activity [38]: inactive
- Activity [39]: inactive
- Activity [40]: inactive
- Activity [41]: inactive
- Activity [42]: inactive
- Activity [43]: inactive
- Activity [44]: inactive
- Activity [45]: inactive
- Activity [46]: inactive
- Activity [47]: inactive
- Activity [48]: inactive
- Activity [49]: inactive
- Activity [50]: inactive
- Activity [51]: inactive
- Activity [52]: inactive
- Activity [53]: inactive
- Activity [54]: inactive
- Activity [55]: Active
- Activity [56]: inactive
- Activity [57]: Active
- Activity [58]: inactive
- Activity [59]: inactive
- Activity [60]: Active
- fold change (FC) [61]: 2.74
- fold change (FC) [62]: 1.13
- selectivity ratio [63]: 34.5
